According to PMC4842970, “Bioactivity Focus of α-Cyano-4-hydroxycinnamic acid (CHCA) Leads to Effective Multifunctional Aldose Reductase Inhibitors” (Scientific Reports, 2016):

Columns and labels:
[1] = system: HEK293 cells; experiment: Cytotoxicity, MTT growth inhibition; type: cell-based, human; settings: 500 μM
Protocol: In another aspect, the toxicity was evaluated by the growth inhibition of 5f against human embryonic kidney 293 (HEK293) cells. It was shown that 5f was nontoxic to HEK293 cells even at high concentration of 500 μM (Supplementary B of Fig. S2).
HEK293 cells were purchased from Centre of Cells Resource, Shanghai Institute of Life Science, Chinese Academy of Sciences, P. R. China. HEK293 cells in the exponential phase were plated on a 96-well cell culture plate with 5 × 10^3 cells in each well supplemented with 100 U/ml of penicillin and 100 μg/ml of streptomycin, which were cultured in a humidified atmosphere of 95% and 5% CO2 at 37 °C for 24 h. The cells were adherent. […] 6 wells were set for each group. The wells without addition of the drug were set as controls. The cells in each of the wells were cultured for another 24 h. Then 15 μl of MTT (5 mg/mL) was added to each well. The plates were then incubated at 37 °C for 4 hours, then the supernatants were discarded. 150 μL of DMSO solutions were added to each of the wells and the solutions were mixed thoroughly. Then the plates were incubated at 37 °C for another 10 minutes. Each sample was mixed again and the resulting formazan was measured by its absorbance at 570 nm using a BIO-RAD680 plate reader (Thermo, USA). The experiments were repeated at least 3 times and compared with the control experiment. […]

[2] = system: oxidative stress (ROS, MDA, ORAC); experiment: ROS generation, MDA and ORAC level in chick embryos; type: in vivo; settings: glucose-treated chick embryos
Description: It has been reported that hyperglycemia increased the production of ROS. Blocking the generation of ROS could at least partially prevent the possible damage of hyperglycemia. No doubt, oxidative stress will be induced in glucose treated embryos. This conclusion was confirmed by the determination of ROS and malondialdehyde (MDA) levels, and the anti-oxidation ability in chick embryos on EDD 5. […] However, treatment of 5f decreased both levels of ROS and MDA in a dose-dependent manner.
In addition, the ORAC level is indicative of the anti-oxidative capacity.
ROS generation ratios in the eyes of EDD 5 chick embryos were detected with 5 μmol 2′,7′-dichlorofluorescein-diacetate (DCFH-DA, Sigma-Aldrich). The peroxide content was determined by measuring thiobarbituric-acid-reactive substances (TBARS) with a commercial MDA kit (Nanjing Jiancheng Institute of Biotechnology, Nanjing, China). The procedures for the ORAC assay were modified from the previously described method. The automated ORAC assay was carried out on a decay of the fluorescein signal and determined with an excitation/emission filter pair of 485/527 nm in a GENios Lueifcrase microplate reader (TECAN) at 37 °C. Final results were calculated on the basis of the difference in the area under the fluorescein decay curve between the blank and each sample.

[3] = system: chick embryo; experiment: Chick embryo model of hyperglycemia: mortality, NTD rate, body weight; type: in vivo; settings: glucose 0.4 mmol/egg, EDD 5, dose 1 μM
Protocol: In order to evaluate further the potential of 5f as an agent to treat diseases caused by high glucose inside the system, a chick embryo model of treatment with high glucose was set up.
Fertilized leghorn eggs were purchased from the Avian Farm of the South China Agriculture University (Guangzhou, China). Before the injection of glucose (Sigma–Aldrich, MO, USA), the eggs were incubated in a humidified incubator (Grumbach, Germany) at 37 °C with 60% humidity until the embryos reached the desired stage. […] Glucose was dissolved in 200 μL chicken saline and injected on EDD 1. Mortality, abnormality and body weight measurements were made on EDD 5. Embryos were removed from their eggs and weighed. The percent mortality was measured by counting the number of dead versus all embryos. The rate of NTD of the embryos was assessed by the number of NTD versus survival embryos.

[4] = target: T1, ALR1 (Gallus gallus, UniProt Q5ZK84); experiment: ALR1 activity in glucose-treated embryos (chicken ALR1 ELISA kit); type: in vivo; settings: glucose-treated chick embryos, EDD 5, compared with the model group
T1 construct: Embryos on EDD 5 were homogenized with chicken saline and centrifuged; from tissue; host or cells: EDD 5 chick (leghorn) embryo homogenate supernatant
T1 sequence (Q5ZK84 1-327): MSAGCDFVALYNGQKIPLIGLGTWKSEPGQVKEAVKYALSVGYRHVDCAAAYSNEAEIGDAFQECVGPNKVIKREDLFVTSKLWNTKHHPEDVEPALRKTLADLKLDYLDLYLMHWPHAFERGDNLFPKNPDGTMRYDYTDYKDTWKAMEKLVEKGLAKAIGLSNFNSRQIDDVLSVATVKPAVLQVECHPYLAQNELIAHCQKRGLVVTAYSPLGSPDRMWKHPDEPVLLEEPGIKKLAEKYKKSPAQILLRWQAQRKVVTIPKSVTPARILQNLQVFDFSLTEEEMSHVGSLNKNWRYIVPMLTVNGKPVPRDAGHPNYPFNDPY
Protocol: Embryos on EDD 5 were homogenized with chicken saline and centrifuged (4 °C, 10000 rpm, 10 min). The supernatant was used for measuring ALR1 activity in the sample. A chicken ALR1 ELISA kit (Jianglai Biotechnology, China) were used for detection. The concentration of ALR1 in the samples was then determined by comparing the OD of the samples to the standard curve.

[5] = system: AR; design: method as in PMID 22316239; settings: read-out: IC50 (AR inhibition); cited from earlier work

Structure (SMILES)	inhibition rate (growth inhibition) [1]	ORAC level (anti-oxidative capacity) of embryo ([2]; EDD 5)	MDA level in embryo ([2]; EDD 5, dose 1 μM)	ROS level in embryo ([2]; EDD 5, dose 1 μM)	Body weight [3]	Death (/n) [3]	NTD (/survival) [3]	ALR1 level in embryo [4]	IC50 [5]
CC(/C=C1\SC(=S)N(CC(=O)O)C1=O)=C\c1ccccc1 [Epalrestat, epalrestat, reference compound]	36.4%	no effect	no effect	no effect	300.1 ± 3.6 mg	25.0%	26.7%	no obvious change	–
O=C(O)/C=C/c1ccc(O)cc1 [p-coumaric acid]	–	–	–	–	–	–	–	–	140 nM
